Calls of active or inactive are those of the source.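 Rule for the calls: active = no visible ATF-4 stress protein band on the western blot after compound pretreatment and chemical ER stress; inactive = the rest.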
Test system: CSM14.1 cells, thapsigargin-induced ATF-4 Western blot
Test: blockers of ATF-4 protein induction, late-stage follow-up, mechanism study for ER stress cell death inhibitors, CSM14.1 cells, thapsigargin, Western blot (AID 1389)

SMILES	outcome
CSc1ccc(C2Nc3ccccc3NC3=C2C(=O)CC(c2ccccc2)C3)cc1 (stereo unspecified)	inactive
CC1(C)CC(=O)C2=C(C1)Nc1ccccc1NC2c1ccc(-c2ccccc2)cc1 (stereo unspecified)	inactive
CCCOc1ccc(C2Nc3ccccc3NC3=C2C(=O)CC(c2ccc(OC)c(OC)c2)C3)cc1 (stereo unspecified)	active
CCOc1cccc(C2Nc3ccccc3NC3=C2C(=O)CC(c2ccc(OC)cc2)C3)c1 (stereo unspecified)	inactive
COc1ccc(C2CC(=O)C3=C(C2)Nc2ccccc2NC3c2cccc(C(F)(F)F)c2)cc1OC (stereo unspecified)	inactive
COc1ccc(C2CC(=O)C3=C(C2)Nc2ccccc2NC3c2cccc(Br)c2)cc1OC (stereo unspecified)	inactive
COc1ccc(C2CC(=O)C3=C(C2)Nc2ccccc2NC3c2cccc(Oc3ccccc3)c2)cc1OC (stereo unspecified)	inactive
O=C1CC(c2ccccc2)CC2=C1C(c1c(F)cccc1Cl)Nc1ccccc1N2 (stereo unspecified)	inactive
COc1ccc(C2CC(=O)C3=C(C2)Nc2ccccc2NC3c2cc(C)ccc2C)cc1 (stereo unspecified)	active
COc1ccc(C2CC(=O)C3=C(C2)Nc2ccccc2NC3c2ccccc2C(F)(F)F)cc1OC (stereo unspecified)	inactive
CCOc1cc(C2Nc3ccccc3NC3=C2C(=O)CC(c2ccc(OC)cc2)C3)cc(Cl)c1O (stereo unspecified)	inactive
